In US20250186485A1, “HYDRATION COMPOSITIONS” (priority 2017, published 2025):
Where two headings read alike, the source gives them in different places.

Columns and labels:
[1] = tested on: patient with right foot rest pain and disabling claudication; details: Case 2; for walking distance without pain: three liters of fluid a day
Source text: A patient came to the consult with right foot rest pain, pallor and coldness up to the knee. […] Rest pain started one week before the consult and their claudication became disabling one month before. The patient was drinking less than 700 milliliters a day of fluids. […] Before proceeding to amputation, proper hydration was achieved. […] Three liters of fluid a day was recommended and the patient was discharged.

[2] = tested on: patients with disabling intermittent claudication or rest pain of the lower extremities
Source text: (§1) Dehydration often occurs in elderly population. Incidence of peripheral artery disease in patients over 60 years of age ranges between 18 and 29%. It was hypothesized that dehydration aggravates symptoms of PAD. Patients with disabling claudication or rest pain resistant to standard medical therapy were instructed to drink between 2,500 to 3000 milliliters of water according to their body mass.
(§2) Patients without a past history of Congestive Heart Failure or renal insufficiency were included in the following example without interrupting exercises they were performing or medication they were receiving. Ninety percent of the patients were receiving aspirin and 100% of them Statins and Cilostazol at least for 5 months before starting the protocol. (See Table 2 below.)
(§3) All patients belonged to category IIb of Fontaine and grade 1 category 2 and 3 of Rutherford.
(§4) Protocol: Complete physical examination and laboratory work were performed. Ankle-brachial pressures were recorded. • 1) Graphics of skin temperature were obtained in both feet using a Flir Thermal Camera (Flir Systems Inc.) in a room at 24 degrees Celsius. (See FIGS. 3 and 4) • 2) Time and distance to claudication using a treadmill at 3 miles per hour was recorded. • 3) Subjective classification of pain intensity from […] was documented. (0=no pain, 10=intense pain) • 4) Skin color-including the absence and/or reduction in abnormal variations in skin color, skin tone and skin elasticity.
(§5) Duplex of the abdominal artery, iliac arteries and infra-inguinal vessels was performed in every patient. Patients were followed weekly and underwent regular blood tests. Patients were recommended to drink 3,000 milliliters of water a day; fluids like tea and milk were counted in addition to water. This recommendation was the part of the protocol and it was carefully controlled.
Statistical analysis: software utilized: SPSS 20 Qualitative variables were expressed in percentages. Quantitative variables were analyzed with the test of Shapiro-Wilk. Continuous variables were expressed as median, 95% confidence intervals and interquartile intervals. Wilcoxon Signed Rank Test was also utilized P<0.05 was considered significant.

[3] = tested on: patients with disabling intermittent claudication or rest pain of the lower extremities; remark: listed apart in the source
Source text: as §1, §2, §3, §4, §5

[4] = tested on: patient with intermittent claudication of the lower extremities and abdominal angina; details: Case 1
Description: A person complaining of 10 step intermittent claudication of the lower extremities, abdominal angina that produced a 15 Kg weight loss, and an abnormal renal function with a creatinine of 3.1 mg per deciliter.
The patient was having intermittent claudication for years but in the last four months it became disabling.
On physical exam patient had no palpable pulses.
The patient was admitted, stool cultures performed and patient was rehydrated with precaution considering their heart condition. […] After four days the patient was discharged and asked to drink 2.5 liters of fluids a day.

## O [water]
[1]; after seven months
  walking distance without pain: walked four kilometers without pain
[1]; after three months
  walking distance without pain: walked three blocks without pain
[1]; two days after proper hydration was achieved
  rest pain of the right foot: pain subsided
[2]; 0=no pain, 10=intense pain, CI 1 to 2.341, initial median 6 (6 to 8), p<0,0001
  pain intensity (final) Median: 2
[2]; FIG. 5, median, 95% confidence interval 29.300 to 31.468, initial median 29.95 (28 to 31)
  final Median dorsal temperature of the first right toe after treatment: 30.65
[2]; FIG. 6, median, CI 28.464 to 30.302, initial median 28.50 (27.366 to 29.939), p:0.0347
  final Median plantar temperature of the first right toe after treatment: 29.25
[2]; after 6 weeks of hydration, before 28.40 (26.82-30), p: 0.030
  Median temperature of the plantar aspect of the left foot after hydration: 29.20 (26.70-30.92) ° C.
[2]; after 6 weeks of hydration, before 28.70 (27-31), p: 0.011
  Median temperature of the plantar aspect of the right foot after 6 weeks: 29 (27.70-31) ° C.
[2]; after 6 weeks of hydration, before 29.40 (27.72-31.30), p: 0.009
  Median temperature of the dorsum of the left foot after 6 weeks: 30.20 (27.70-31.70) ° C.
[2]; after 6 weeks of hydration, before protocol 29.95 (27.60-31.15), p: 0.02
  Median temperature of the dorsum of the right foot after hydration: 30.35 (28.12-31.60) ° C.
[2]; after treatment
  Decrease of pain sensation recorded, percentage of patients: 91.7 % of patients
  Patients with improvement of pain sensation of more than 50%: 80 % of the patients
[2]; initial median 0.6 (0.50 to 0.69), p<0,0001
  Median ankle/brachial index after 6 weeks of treatment: 0.75 (0.62 to 0.80)
[2]; single patient 15, final intake of water 3000 ml, initial 6
  Final pain intensity sensation, patient 15: 0
[2]; single patient 15, final intake of water 3000 ml, initial 300 mts
  Distance to claudication (final), patient 15: 6000 mts
[2]; single patient 15, final intake of water 3000 ml, initial index 0.77
  Final ankle/brachial index, patient 15: 0.83
[2]; treadmill 3 miles per hour, end of 6 weeks, CI 382.947 to 800, initial median 100 (50 to 200), p<0.0001
  distance to claudication, final Median: 535
[2]; treadmill, 95% CI 4.195 to 9.209, initial median 1.3 (0.7 to 2.500), p<0.0001
  Time to claudication after hydration, Median: 6.3 min
[3]; 35 patients in whom proper hydration was achieved
  status related to lower extremity ischemia: all of them improved
[3]; anecdotal, drinking 3 liters of water a day
  ulcers in the toes and ankle: reversed the lesions
[3]; patients who drank more than 2.5 liters of fluids a day (35 of the 36 patients)
  Time and distance to claudication, cutaneous temperature, ankle-brachial pressure and subjective pain sensation: improved significantly
[4]; 14 months after last admission, 2.5 liters of fluids a day
  walking distance without pain: more than 4 blocks
[4]; after rehydration in hospital, second day
  walking distance without pain: 50 meters
